Reference: ChEMBL document CHEMBL1141581, “Cyclic guanidines as dual 5-HT5A/5-HT7 receptor ligands: structure-activity relationship elucidation” (Bioorg Med Chem Lett, 2008)

Columns and labels:
[1] = target: 5-hydroxytryptamine receptor 7 (Homo sapiens, UniProt P34969); assay: Displacement of [3H]LSD from human recombinant 5HT7 receptor expressed in HEK293-EBNA cells; format: cell-based
Homo sapiens [2] = species on record: Homo sapiens; assay: Selectivity for human recombinant 5HT5A receptor over human recombinant 5HT6 receptor
Homo sapiens [3] = species on record: Homo sapiens; assay: Selectivity for human recombinant 5HT5A receptor over human 5HT3 receptor
Homo sapiens [4] = species on record: Homo sapiens; assay: Selectivity for human recombinant 5HT5A receptor over human recombinant 5HT2A receptor
[5] = target: T1, 5-hydroxytryptamine receptor 2C (Homo sapiens, UniProt P28335); assay: Displacement of [3H]mesulergine from human recombinant 5HT2C receptor expressed in HEK293-EBNA cells; format: cell-based
T1 sequence (P28335 whole entry): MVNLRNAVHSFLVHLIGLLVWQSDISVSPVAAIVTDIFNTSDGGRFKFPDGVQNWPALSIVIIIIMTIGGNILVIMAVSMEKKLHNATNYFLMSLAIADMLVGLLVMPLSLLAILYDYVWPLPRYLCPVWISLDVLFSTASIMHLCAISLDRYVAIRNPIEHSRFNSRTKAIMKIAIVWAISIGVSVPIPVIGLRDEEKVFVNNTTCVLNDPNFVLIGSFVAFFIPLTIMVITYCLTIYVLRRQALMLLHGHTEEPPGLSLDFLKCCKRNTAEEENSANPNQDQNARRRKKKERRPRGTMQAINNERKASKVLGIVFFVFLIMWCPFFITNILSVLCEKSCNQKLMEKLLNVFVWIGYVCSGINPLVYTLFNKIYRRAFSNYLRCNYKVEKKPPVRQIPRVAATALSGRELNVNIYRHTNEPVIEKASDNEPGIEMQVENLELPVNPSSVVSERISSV

[6] = target: T2, 5-hydroxytryptamine receptor 5A (Homo sapiens, UniProt P47898); assay: Antagonist activity at human recombinant 5HT5A receptor expressed in HEK293-EBNA cells by [35S]GTP-gamma-S binding assay; format: functional, cell-based
T2 sequence (P47898 whole entry): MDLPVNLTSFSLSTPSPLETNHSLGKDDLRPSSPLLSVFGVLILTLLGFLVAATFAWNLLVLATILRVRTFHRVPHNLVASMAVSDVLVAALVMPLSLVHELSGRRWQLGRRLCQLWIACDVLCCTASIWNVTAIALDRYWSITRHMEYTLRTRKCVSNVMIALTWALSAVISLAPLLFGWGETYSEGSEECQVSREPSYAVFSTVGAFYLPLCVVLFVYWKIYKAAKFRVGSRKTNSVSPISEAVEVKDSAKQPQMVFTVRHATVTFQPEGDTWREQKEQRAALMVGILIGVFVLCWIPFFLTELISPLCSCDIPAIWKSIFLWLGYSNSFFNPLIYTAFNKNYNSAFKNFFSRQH

[7] = target: T3, 5-hydroxytryptamine receptor 1A (Homo sapiens, UniProt P08908); assay: Displacement of [3H]8-OH-DPAT from human recombinant 5HT1A receptor expressed in HEK293-EBNA cells; format: cell-based
T3 sequence (P08908 whole entry): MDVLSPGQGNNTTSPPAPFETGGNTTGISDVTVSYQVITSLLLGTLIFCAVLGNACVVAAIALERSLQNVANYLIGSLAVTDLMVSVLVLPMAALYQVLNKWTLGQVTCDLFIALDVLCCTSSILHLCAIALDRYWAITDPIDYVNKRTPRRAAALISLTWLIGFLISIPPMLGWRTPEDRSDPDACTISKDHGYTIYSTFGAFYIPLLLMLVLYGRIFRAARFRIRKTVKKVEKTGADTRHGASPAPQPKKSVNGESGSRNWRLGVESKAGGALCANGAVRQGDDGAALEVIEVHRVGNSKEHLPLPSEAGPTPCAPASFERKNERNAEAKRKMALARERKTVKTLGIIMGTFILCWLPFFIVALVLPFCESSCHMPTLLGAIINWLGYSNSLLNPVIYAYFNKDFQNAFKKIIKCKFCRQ

[8] = target: 5-hydroxytryptamine receptor 1D (Homo sapiens, UniProt P28221); assay: Displacement of [3H]LSD from human recombinant 5HT1D receptor expressed in HEK293-EBNA cells; format: cell-based
Sequence of 5-hydroxytryptamine receptor 1D (P28221 whole entry): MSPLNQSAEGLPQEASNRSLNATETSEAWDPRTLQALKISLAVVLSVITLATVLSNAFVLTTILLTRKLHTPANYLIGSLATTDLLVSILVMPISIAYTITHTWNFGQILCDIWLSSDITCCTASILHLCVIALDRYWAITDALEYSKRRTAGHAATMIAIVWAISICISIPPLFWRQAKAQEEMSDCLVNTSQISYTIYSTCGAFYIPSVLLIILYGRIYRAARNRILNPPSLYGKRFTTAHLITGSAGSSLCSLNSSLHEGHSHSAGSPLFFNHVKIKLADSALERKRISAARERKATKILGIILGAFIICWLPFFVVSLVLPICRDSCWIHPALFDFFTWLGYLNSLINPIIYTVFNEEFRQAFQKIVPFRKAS

[9] = target: T2, 5-hydroxytryptamine receptor 5A; assay: Displacement of [3H]LSD from human recombinant 5HT5A receptor expressed in HEK293-EBNA cells; format: cell-based
Homo sapiens [10] = species on record: Homo sapiens; assay: Selectivity for human recombinant 5HT5A receptor over human recombinant 5HT1D receptor
Histamine H1 receptor = Histamine H1 receptor (Homo sapiens, UniProt P35367); assay: Binding affinity to histamine H1 receptor
Sequence of Histamine H1 receptor (P35367 whole entry): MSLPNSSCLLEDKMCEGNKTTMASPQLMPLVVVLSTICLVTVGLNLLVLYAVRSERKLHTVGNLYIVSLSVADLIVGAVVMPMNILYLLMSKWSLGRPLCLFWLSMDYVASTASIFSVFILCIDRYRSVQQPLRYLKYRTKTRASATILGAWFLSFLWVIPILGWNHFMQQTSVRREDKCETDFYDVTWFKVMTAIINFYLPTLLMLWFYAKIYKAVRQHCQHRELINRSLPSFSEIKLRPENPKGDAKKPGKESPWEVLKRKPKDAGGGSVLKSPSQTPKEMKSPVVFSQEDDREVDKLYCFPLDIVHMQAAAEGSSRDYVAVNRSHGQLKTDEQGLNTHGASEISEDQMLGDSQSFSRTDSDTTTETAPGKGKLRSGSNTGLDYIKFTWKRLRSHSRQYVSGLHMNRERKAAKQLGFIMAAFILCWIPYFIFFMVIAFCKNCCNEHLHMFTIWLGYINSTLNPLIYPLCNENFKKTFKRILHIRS

[11] = target: T4, 5-hydroxytryptamine receptor 2B (Homo sapiens, UniProt P41595); assay: Inhibition of 5HT2B receptor
T4 sequence (P41595 whole entry): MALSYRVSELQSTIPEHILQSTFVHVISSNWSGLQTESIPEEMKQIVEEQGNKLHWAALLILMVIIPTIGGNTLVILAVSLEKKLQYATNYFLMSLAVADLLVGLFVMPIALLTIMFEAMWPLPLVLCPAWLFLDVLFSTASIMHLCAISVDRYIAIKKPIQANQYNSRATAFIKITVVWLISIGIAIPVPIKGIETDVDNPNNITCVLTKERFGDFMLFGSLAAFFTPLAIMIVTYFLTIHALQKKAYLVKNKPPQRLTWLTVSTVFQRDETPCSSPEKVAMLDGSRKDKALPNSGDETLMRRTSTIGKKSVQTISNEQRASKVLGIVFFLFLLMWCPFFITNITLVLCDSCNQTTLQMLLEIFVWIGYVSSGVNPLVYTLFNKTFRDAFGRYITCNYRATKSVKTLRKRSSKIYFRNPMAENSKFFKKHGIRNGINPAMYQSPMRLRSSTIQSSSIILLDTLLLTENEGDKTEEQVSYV

[12] = Protein binding in mouse plasma; format: ADME, cell-free; settings: read-out: PPB (converted)
[13] = target: T4, 5-hydroxytryptamine receptor 2B; settings: 1 uM
Description: Inhibition of 5HT2B receptor at 1 uM

[14] = Inhibition of adrenergic alpha-1 receptor at 1 uM
[15] = Inhibition of adrenergic alpha-2 receptor
[16] = target: 5-hydroxytryptamine receptor 2A (Homo sapiens, UniProt P28223); assay: Displacement of [3H]ketanserin from human recombinant 5HT2A receptor expressed in HEK293-EBNA cells; format: cell-based
Sequence of 5-hydroxytryptamine receptor 2A (P28223 whole entry): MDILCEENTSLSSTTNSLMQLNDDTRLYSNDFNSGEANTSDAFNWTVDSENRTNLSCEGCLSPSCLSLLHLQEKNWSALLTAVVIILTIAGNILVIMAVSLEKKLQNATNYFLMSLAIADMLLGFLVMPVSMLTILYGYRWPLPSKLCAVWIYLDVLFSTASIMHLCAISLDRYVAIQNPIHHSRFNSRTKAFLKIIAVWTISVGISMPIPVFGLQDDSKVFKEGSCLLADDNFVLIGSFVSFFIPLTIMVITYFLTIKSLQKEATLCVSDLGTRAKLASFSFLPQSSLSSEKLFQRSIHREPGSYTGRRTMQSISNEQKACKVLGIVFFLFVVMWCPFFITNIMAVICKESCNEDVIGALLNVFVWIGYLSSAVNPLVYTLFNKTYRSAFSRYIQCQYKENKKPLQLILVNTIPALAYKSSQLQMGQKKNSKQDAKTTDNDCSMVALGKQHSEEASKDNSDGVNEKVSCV

[17] = target: 5-hydroxytryptamine receptor 6 (Homo sapiens, UniProt P50406); assay: Displacement of [3H]LSD from human recombinant 5HT6 receptor expressed in HEK293-EBNA cells; format: cell-based
Sequence of 5-hydroxytryptamine receptor 6 (P50406 whole entry): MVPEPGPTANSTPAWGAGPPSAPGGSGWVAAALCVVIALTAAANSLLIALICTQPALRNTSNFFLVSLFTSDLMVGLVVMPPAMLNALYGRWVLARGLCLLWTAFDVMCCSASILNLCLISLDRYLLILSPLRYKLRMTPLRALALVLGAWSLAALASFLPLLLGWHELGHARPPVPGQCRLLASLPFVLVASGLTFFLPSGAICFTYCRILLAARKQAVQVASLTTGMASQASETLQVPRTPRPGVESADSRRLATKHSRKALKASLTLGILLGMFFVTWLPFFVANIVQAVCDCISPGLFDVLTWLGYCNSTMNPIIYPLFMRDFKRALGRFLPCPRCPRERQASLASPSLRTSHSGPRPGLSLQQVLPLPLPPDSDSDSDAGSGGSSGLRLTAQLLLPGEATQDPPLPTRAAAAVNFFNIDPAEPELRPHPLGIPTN

[18] = target: T5, 5-hydroxytryptamine receptor 3A (Homo sapiens, UniProt P46098); assay: Binding affinity to human 5HT3 receptor
T5 sequence (P46098 whole entry): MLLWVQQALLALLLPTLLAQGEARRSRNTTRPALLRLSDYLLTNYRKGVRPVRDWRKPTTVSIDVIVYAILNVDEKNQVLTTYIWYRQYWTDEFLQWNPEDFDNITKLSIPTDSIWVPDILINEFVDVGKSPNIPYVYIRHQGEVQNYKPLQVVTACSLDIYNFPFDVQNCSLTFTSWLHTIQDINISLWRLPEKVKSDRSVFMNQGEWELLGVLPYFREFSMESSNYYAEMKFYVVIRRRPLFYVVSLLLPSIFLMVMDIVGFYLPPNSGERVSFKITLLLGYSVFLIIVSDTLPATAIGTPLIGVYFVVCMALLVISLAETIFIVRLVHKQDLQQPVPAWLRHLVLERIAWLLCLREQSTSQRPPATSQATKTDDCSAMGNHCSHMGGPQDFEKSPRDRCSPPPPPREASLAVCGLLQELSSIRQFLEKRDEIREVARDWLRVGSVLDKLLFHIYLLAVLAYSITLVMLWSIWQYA

Sequence of 5-hydroxytryptamine receptor 7 (P34969 whole entry): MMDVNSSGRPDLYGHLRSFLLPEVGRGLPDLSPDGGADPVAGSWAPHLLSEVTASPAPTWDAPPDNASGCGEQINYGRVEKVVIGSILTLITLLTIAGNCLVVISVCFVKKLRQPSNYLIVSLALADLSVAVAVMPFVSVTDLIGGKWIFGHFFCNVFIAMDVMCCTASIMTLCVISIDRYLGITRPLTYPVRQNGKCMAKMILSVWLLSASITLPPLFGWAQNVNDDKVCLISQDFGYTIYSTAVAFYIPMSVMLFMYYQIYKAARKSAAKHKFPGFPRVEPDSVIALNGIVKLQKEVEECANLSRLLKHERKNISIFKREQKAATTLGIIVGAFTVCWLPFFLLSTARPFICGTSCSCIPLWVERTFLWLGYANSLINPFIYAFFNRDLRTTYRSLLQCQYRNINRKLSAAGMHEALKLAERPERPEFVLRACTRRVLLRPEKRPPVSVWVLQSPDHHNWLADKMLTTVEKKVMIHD

| Structure (SMILES) | Ki [1] | Ki [5] | Ki [7] | Ki [8] | Ki [9] | also measured |
| --- | --- | --- | --- | --- | --- | --- |
| CNC1=Nc2cccc(Cl)c2C(C)N1 (stereo not given) | 15.3 nM | 235 nM | 389 nM | 1460 nM |  | Ratio Ki (Homo sapiens [2]): > 30; Ratio Ki (Homo sapiens [3]): > 30; Ratio Ki (Homo sapiens [4]): > 30; Kb [6]: 7.41 nM |
| CC1(C)NC(N)=Nc2ccccc21 |  |  |  |  | 1170 nM |  |
| CCC1NC(N)=Nc2cccc(Cl)c21 (stereo not given) | 97.4 nM | 380 nM | 1080 nM | > 10000 nM | 84.4 nM |  |
| COc1ccc2c(c1)N=C(N)NC2 |  |  |  |  | 1380 nM |  |
| CCC1NC(N)=Nc2ccc(Cl)c(Cl)c21 (stereo not given) | 73 nM | 155 nM | 765 nM | 1270 nM | 26.5 nM |  |
| CC(C)Oc1cccc2c1N=C(N)NC2C (stereo not given) | 1 nM | 488 nM | 265 nM | 70 nM |  | Ratio Ki (Homo sapiens [2]): > 30; Ratio Ki (Homo sapiens [3]): > 30; Ratio Ki (Homo sapiens [4]): > 30; Ratio Ki (Homo sapiens [10]): 7 |
| CCCC1NC(N)=Nc2ccccc21 (stereo not given) |  |  |  |  | 805 nM |  |
| CCC1NC(N)=Nc2ccccc21 (stereo not given) |  |  |  |  | 24 nM |  |
| CC1NC(N)=Nc2ccc(Cl)c(Cl)c21 (stereo not given) | 8.7 nM | 26 nM | 181 nM | 260 nM |  | Ratio Ki (Homo sapiens [2]): > 30; Ratio Ki (Homo sapiens [3]): > 30; Ratio Ki (Homo sapiens [4]): > 30; Ki (Histamine H1 receptor): 8 nM |
| CC1NC(N)=Nc2ccccc21 (stereo not given) |  |  |  |  | 38 nM |  |
| CNC1=Nc2ccccc2CN1 |  |  |  |  | 1790 nM |  |
| NC1=Nc2cccc(F)c2CN1 |  |  |  |  | 550 nM |  |
| COc1c(Cl)ccc2c1C(C)NC(N)=N2 (stereo not given) | 12.4 nM | 74 nM | 339 nM | 1160 nM | 22.9 nM |  |
| CC1NC(N)=Nc2cccc(Cl)c21 (stereo not given) | 15.9 nM | 152 nM | 192 nM | 1270 nM |  | IC50 [11]: > 400 nM; fraction unbound [12]: 0.16; inhibition [13]: > 60%; inhibition [14]: > 60%; Ki (Histamine H1 receptor): 1100 nM; IC50 [15]: > 400 nM; Kb [6]: 3.02 nM |
| COc1cccc2c1N=C(N)NC2C (stereo not given) | 8.2 nM | 556 nM | 32 nM | 446 nM |  | Ratio Ki (Homo sapiens [2]): > 30; Ratio Ki (Homo sapiens [3]): > 30; Ratio Ki (Homo sapiens [4]): > 30 |
| NC1=Nc2ccccc2CN1 |  |  |  |  | 658 nM |  |
| NC1=Nc2ccc(Cl)cc2CN1 |  |  |  |  | 807 nM |  |
| CC1NC(N)=Nc2c(Cl)ccc(Cl)c21 (stereo not given) | 2.4 nM | 74 nM | 91 nM | 966 nM | 6.5 nM | Ratio Ki (Homo sapiens [2]): > 30; Ratio Ki (Homo sapiens [3]): > 30; Ratio Ki (Homo sapiens [4]): > 30 |

| Structure (SMILES) | Ki [1] | Ki [5] | Ki [7] | Ki [8] | Ki [9] | also measured |
| --- | --- | --- | --- | --- | --- | --- |
| COc1cc(Cl)c(C)c2c1N=C(N)NC2C (stereo not given) | 2.5 nM | 19 nM | 105 nM | 143 nM |  | Ratio Ki (Homo sapiens [2]): > 30; Ratio Ki (Homo sapiens [3]): > 30; Ratio Ki (Homo sapiens [4]): > 30 |
| Cc1cccc2c1CNC(N)=N2 |  |  |  |  | 145 nM |  |
| CN1Cc2ccccc2N=C1N |  |  |  |  | > 10000 nM |  |
| CNC1=Nc2c(OC(C)C)cccc2C(C)N1 (stereo not given) | 2.4 nM | 970 nM | 669 nM | 160 nM |  | Ratio Ki (Homo sapiens [2]): > 30; Ratio Ki (Homo sapiens [3]): > 30; Ratio Ki (Homo sapiens [4]): > 30; Ratio Ki (Homo sapiens [10]): 7 |
| NC1=Nc2cc(Cl)ccc2CN1 |  |  |  |  | 347 nM |  |
| NC1=Nc2cccc(Cl)c2CN1 [listing 1 of 2 here] |  |  |  |  |  | Ki ([9]; hek293-ebna): 99 nM |
| NC1=Nc2c(Cl)cccc2CN1 |  |  |  |  | 892 nM |  |
| NC1=Nc2cccc(Cl)c2CN1 [listing 2 of 2 here] | 793 nM | 658 nM | 1700 nM | 3590 nM | 99 nM | Ki [16]: 1160 nM; Ki [17]: > 10000 nM; Ki [18]: 1050 nM |
| NC1=Nc2cc(F)ccc2CN1 |  |  |  |  | 647 nM |  |
| CNC1=Nc2ccc(Cl)c(Cl)c2C(C)N1 (stereo not given) | 13.2 nM | 94 nM | 246 nM | 454 nM |  | Ratio Ki (Homo sapiens [2]): > 30; Ratio Ki (Homo sapiens [3]): > 30; Ratio Ki (Homo sapiens [4]): > 30 |
| CN(C)C1=Nc2ccccc2CN1 |  |  |  |  | 2800 nM |  |
| Cc1ccc2c(c1)N=C(N)NC2 |  |  |  |  | 274 nM |  |
| COc1cccc2c1N=C(N)NC2 |  |  |  |  | 97 nM |  |
| NC1=Nc2ccc(Cl)c(Cl)c2CN1 | 294 nM | 208 nM | 1080 nM | 1260 nM | 43 nM | Ki [16]: 434 nM; Ki [17]: 1160 nM; Ki [18]: 172 nM |
| Cc1cccc2c1N=C(N)NC2 |  |  |  |  | 463 nM |  |
| Cc1ccc2c(c1)CNC(N)=N2 |  |  |  |  | 882 nM |  |
| NC1=Nc2ccc(F)cc2CN1 |  |  |  |  | 911 nM |  |
| NC1=Nc2c(F)cccc2CN1 |  |  |  |  | 1990 nM |  |
